Measured values reported in article PMC3479662 (Journal of medicinal chemistry, 2012).
pKi: −log10 of the molar value. Marks after values point to notes of the source that are not given here. Each block holds one compound with its values, some of them ahead of it.

What was measured:
A3AR = details: read-out: Affinity Ki, A3; human unless noted; ref de Zwaart et al.[38]; cited from earlier work
hA1AR [1] = molecular target: T1, hA1AR (Homo sapiens, UniProt P30542); details: for agonist character at the A1AR (full / partial agonist): cyclic AMP assay, hA1AR
T1 sequence (P30542 1-326): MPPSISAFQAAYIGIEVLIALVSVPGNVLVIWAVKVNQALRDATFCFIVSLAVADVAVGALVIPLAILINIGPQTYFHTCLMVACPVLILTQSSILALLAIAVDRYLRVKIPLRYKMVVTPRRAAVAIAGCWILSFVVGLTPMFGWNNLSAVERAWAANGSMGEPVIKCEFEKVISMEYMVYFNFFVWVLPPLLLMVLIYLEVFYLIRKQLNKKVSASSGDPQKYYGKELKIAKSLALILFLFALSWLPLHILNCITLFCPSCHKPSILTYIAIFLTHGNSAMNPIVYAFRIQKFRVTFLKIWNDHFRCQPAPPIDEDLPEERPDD

hA2AAR = hA2AAR (Homo sapiens, UniProt P29274); test: Stimulation of cyclic AMP production in A2AAR-expressing CHO cells; type: cell-based; details: cyclic AMP assay
Sequence of hA2AAR (P29274 whole entry): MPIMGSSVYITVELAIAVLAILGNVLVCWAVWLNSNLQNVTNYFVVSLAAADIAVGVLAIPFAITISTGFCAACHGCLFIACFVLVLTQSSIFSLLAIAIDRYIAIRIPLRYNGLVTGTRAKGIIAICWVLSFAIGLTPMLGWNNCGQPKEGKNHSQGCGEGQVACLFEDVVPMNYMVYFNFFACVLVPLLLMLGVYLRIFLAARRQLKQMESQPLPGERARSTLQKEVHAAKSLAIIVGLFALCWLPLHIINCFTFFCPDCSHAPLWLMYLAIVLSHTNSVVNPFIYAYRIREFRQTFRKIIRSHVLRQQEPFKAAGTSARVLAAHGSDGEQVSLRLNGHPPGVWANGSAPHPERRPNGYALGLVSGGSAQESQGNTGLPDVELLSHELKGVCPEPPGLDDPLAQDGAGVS

rat A2AAR = details: ref Jacobson et al.[39]; cited from earlier work
rat A1AR = details: ref Jacobson et al.[39]; cited from earlier work
hA1AR [2] = molecular target: T1, hA1AR; test: Radioligand binding at hA1AR, [3H]R-PIA, membranes of CHO cells; details: human orthologue more potent than rat

agonist character at the A1AR (full / partial agonist) (hA1AR [1]): full agonists
SMILES: Nc1ncnc2c1ncn2[C@@H]1O[C@H](C(=O)NC2CCCC2)[C@@H](O)[C@H]1O [Compound 22]
pKi (A3AR): 7.49

agonist character at the A2AAR (full agonist) (hA2AAR): full agonists
agonist character at the A1AR (full / partial agonist) (hA1AR [1]): full agonists
SMILES: Nc1ncnc2c1ncn2[C@@H]1O[C@H](C(=O)NC2CC2)[C@@H](O)[C@H]1O [Compound 16, reference compound]

difference between rat and human A1AR binding affinities (hA1AR [2]): approximately 100 fold
agonist character at the A1AR (full / partial agonist) (hA1AR [1]): partial agonists
SMILES: Nc1ncnc2c1ncn2[C@@H]1O[C@H](C(=O)NCC(F)(F)F)[C@@H](O)[C@H]1O [Compound 5]

agonist character at the A2AAR (full agonist) (hA2AAR): full agonists
agonist character at the A1AR (full / partial agonist) (hA1AR [1]): partial agonist
SMILES: Nc1ncnc2c1ncn2[C@@H]1O[C@H](C(=O)NC2CCC2)[C@@H](O)[C@H]1O [Compound 18]
pKi (A3AR): 7.64

The next lines start with the compound.

SMILES: CCNC(=O)[C@H]1O[C@@H](n2cnc3c(N)ncnc32)[C@H](O)[C@@H]1O [Compound 1, 5′-N-ethylcarboxamidoadenosine, reference compound]
Activation of A1, % of 1, 10 μM (hA1AR [1]; single point at 10 μM, effect of full agonist 1 = 100%, hA1AR CHO cells): 100 % of 1

SMILES: NCCNC(=O)[C@H]1O[C@@H](n2cnc3c(N)ncnc32)[C@H](O)[C@@H]1O [Compound 11]
% inhibition, A2A (rat) (rat A2AAR): > 10%
% inhibition, A1 (rat) (rat A1AR): (>10%, rat) ^e

SMILES: Nc1ncnc2c1ncn2[C@@H]1O[C@H](C(=O)NCCCl)[C@@H](O)[C@H]1O [Compound 6, reference compound]
pKi (A3AR): 6.48
